Data from patent publication US20130273649A1, “Culture medium for pluripotent stem cells” (UNIVERSITY OF SOUTHERN CALIFORNIA, priority 2012, published 2013).

Assays:
Format in all cases: cell-based
Axin2 = assay: Western blot of Axin2 in mouse EpiSCs; conditions: CD1 mouse EpiSCs treated 12 h
mouse EpiSCs = assay: Mouse EpiSC self-renewal culture; conditions: for EpiSC self-renewal / maintenance of undifferentiated state: CD1 mouse EpiSCs, GMEM/10% FBS, no FGF2/activin unless named, CHIR 3 μM, PD0325901 1 μM, XAV939 2 μM, IWR-1 2.5 μM, IWP-2 2.5 μM, Pyrvinium 100 nM
From the text: We therefore reasoned that if CHIR induces EpiSC differentiation through stabilization of β-catenin, de-stabilization of β-catenin might promote EpiSC self-renewal. We tested this hypothesis by administering the tankyrase inhibitor XAV939 to mouse EpiSC cultures. XAV939-mediated inhibition of tankyrase stabilizes Axin, leading to the formation of the β-catenin destruction complex, composed of GSK3, Axin and adenomatous polyposis coli (APC) (Huang et al., 2009). […] EpiSCs cultured in CHIR/XAV could be routinely passaged by single-cell dissociation and replating onto gelatin-coated dishes, and could be cryo-preserved and recovered at high efficiency by standard techniques.
final concentrations: CHIR99021 (3 μM), PD0325901 (1 μM), XAV939 (Sigma, 2 μM), IWR-1 (Sigma, 2.5 μM), IWP-2 (Stemgent, 2.5 μM), Pyrvinium (Sigma, 100 nM), recombinant human FGF2 (PeproTech, 10 ng/ml), and recombinant human activin A (PeproTech, 10 ng/ml). CHIR99021 and PD0325901 were synthesized in the Division of Signal Transduction Therapy, University of Dundee, UK.
The basal medium for mouse EpiSC culture is the conventional mouse ESC medium, which consists of GMEM (Sigma) supplemented with 10% fetal bovine serum (FBS) (Hyclone), 2 mM L-glutamine (Invitrogen), 1 mM sodium pyruvate (Invitrogen), 1% nonessential amino acids (Invitrogen), and 0.1 mM (3-mercaptoethanol. Mouse EpiSCs were derived and maintained in the basal medium supplemented with FGF2/activin, CHIR/XAV, or CHIR/IWR-1. The basal medium for rat EpiSC culture is N2B27 (Tong et al., 2011), which was prepared by mixing 500 ml of DMEM/F12 (Invitrogen) with 500 ml of Neurobasal™ medium (Invitrogen), and adding 5 ml of N2 (Invitrogen), 10 ml of B27 (Invitrogen), 5 ml of Glutamax™ (Invitrogen), and 1 ml of 0.1 M β-mercaptoethanol (Sigma). The basal medium for human ESC culture consists of Knockout™ DMEM/F12 supplemented with 20% KSR (Invitrogen), 1% nonessential amino acids, 2 mM L-glutamine, and 0.1 mM (3-mercaptoethanol. Human ESCs were cultured in the basal medium supplemented with FGF2, CHIR/XAV, or CHIR/IWR-1.
Post-implantation epiblasts were isolated from mouse or rat embryos and dissociated into small clumps as previously described (Chenoweth and Tesar, 2010). Epiblast fragments were placed into 4-well plates pre-coated with 0.1% gelatin (for mouse epiblasts) or pre-seeded with γ-irradiated mouse embryonic fibroblasts (MEFs) (for rat epiblasts) and cultured in either the FGF2/activin or the CHIR/XAV conditions. Emerging EpiSCs were trypsinized and expanded every 2-3 days at a subculture ratio of 1:4. Animal experiments were performed according to the investigator's protocols approved by the University of Southern California Institutional Animal Care and Use Committee.

[1] = system: β-catenin/TCF-responsive TOPFlash reporter; assay: TOPFlash reporter assay in mouse EpiSCs; conditions: CD1 mouse EpiSCs, 12 hours
Procedure: (A) TOPFlash™ assay in CD1 mouse EpiSCs treated with the indicated inhibitors for 12 hours. Data represent mean±s.d. of three biological replicates. (B) Representative phase contrast images of CD1 mouse EpiSCs cultured in the indicated conditions for 7 days. (C) Western blot analysis of CD1 mouse EpiSCs treated with the indicated inhibitors for 12 h. (D) qRT-PCR analysis of Axin1 and Axin2 mRNA levels in CD1 mouse EpiSCs stably transfected with Axin1 shRNA or Axin2 shRNA. Data represent mean±s.d. of three biological replicates. (E) Colony assay on CD1 mouse EpiSCs stably transfected with scramble, Axin1, or Axin2 shRNAs. Cells were plated onto a 6-well plate at a density of 5,000 cells/well and cultured in CHIR/IWR-1. Colonies were counted 7 days after plating. Data represent the total combined numbers of colonies from two independent experiments in which each shRNA-transfected group was cultured in one well of a 6-well plate. (F) Representative phase contrast images of CD 1 mouse EpiSCs stably transfected with the indicated shRNAs and cultured in CHIR/IWR-1 for 7 days. (G) Western blot analysis of CD1 mouse EpiSCs overexpressing Flag-tagged Axin1 or Axin2. (H) Representative phase contrast images of CD1 mouse EpiSCs overexpressing Axin1 or Axin2 and cultured in CHIR for 7 days. Axin2-overexpressing EpiSCs could be continually passaged in CHIR alone. Scale bars, 50 μm (B, F and H)
Next, we investigated the mechanism by which CHIR/XAV promotes EpiSC self-renewal. By inhibiting GSK3 phosphorylation of β-catenin, CHIR stabilizes β-catenin, which then trans-locates to the nucleus and forms complexes with DNA-binding proteins, including TCFs, to activate transcription (Logan and Nusse, 2004). […]
For quantifying relative Oct3/4 enhancer activities, pGL3-Oct4 DE and pGL3-Oct4 PE plasmids (gifts from Hans Schöler's lab) were co-transfected with the Renilla vector, using the Amaxa™ Transfection Kit (Lonza). […] For quantifying relative β-catenin/Tcf transcriptional activity, pGL2-SuperTOP™ plasmid (gift from Randall Moon) was co-transfected with the Renilla vector and assayed accordingly.

Structure (SMILES) | amount of Axin2 protein (Axin2) | EpiSC self-renewal / maintenance of undifferentiated state (mouse EpiSCs) | time EpiSCs remained undifferentiated (mouse EpiSCs; XAV939 alone, before passaging) | effect on TOPFlash activity induced by CHIR ([1]; added to CHIR) | self-renewal of β-catenin−/− EpiSCs overexpressing Axin2 (mouse EpiSCs; 3 μM CHIR after removal of FGF2/activin) | self-renewal of Axin1-overexpressing EpiSCs (mouse EpiSCs; Axin1-EpiSCs, CHIR after removal of FGF2/activin) | self-renewal of Axin2-overexpressing EpiSCs (mouse EpiSCs; Axin2-EpiSCs, CHIR alone after removal of FGF2/activin) | TOPFlash reporter activity [1]
Oc1nc(-c2ccc(C(F)(F)F)cc2)nc2c1CSCC2 [XAV939, 3,5,7,8-Tetrahydro-2-[4-(trifluoromethyl)phenyl]-4H-thiopyrano[4,3-d]pyrimidin-4-one] | significantly increased | differentiated after passaging | approximately 1 week | abolished the TOPFlash activity induced by CHIR |  |  |  | 
Cc1c[nH]c(-c2cnc(NCCNc3ccc(C#N)cn3)nc2-c2ccc(Cl)cc2Cl)n1 [CHIR99021, 6-((2-((4-(2,4-Dichlorophenyl)-5-(4-methyl-1H-imidazol-2-yl)pyrimidin-2-yl)amino)ethyl)amino)nicotinonitrile] | elevated | rapidly differentiated or died |  |  | differentiated after the removal of FGF2/activin, even in the presence of CHIR | rapidly differentiated | sufficient to support robust and long-term expansion of undifferentiated Axin2-EpiSCs | strongly induced
